# From patent publication US20070004680A1, “Compositions and methods for modulating gated ion channels” (PainCeptor Pharma Corporation, priority 2004, published 2007)
# Tested on: Male Sprague-Dawley rats
# Experiment: Formalin test (flinching behaviour)
# Type: in vivo, rat
# Details: 10 mg/kg i.v. 10 min prior to formalin in the hind limb; compared with vehicle; n=8
# Protocol: Male Sprague-Dawley rats (body weight, 180-300 g) are housed together in groups of four animals under standard conditions with unrestricted access to food and water. Rats are housed in the room in which the testing procedure is performed to minimize any stress response to novel environmental cues. All experiments are conducted according to the ethical guidelines for investigations of experimental pain in conscious animals (Zimmerman, 1983).
# Separate groups of rats are used for the different experiments such that each animal is used on one occasion only. All experiments for a given compound are performed using age matched animals in an attempt to avoid variability between experiments. Prior to initiation of the formalin test, 4 rats are habituated in separate testing cages for 15-20 min. […] On the basis of the response pattern, two distinct phases of nociceptive behavior are observed, characterized by flinching of the affected paw and scored (Blackburn-Munro et al., Eur J Pharmacol. 2002 Jun. 12;445(3):231-8). […]
# All data is analysed using Sigmastat 2.03 statistical software (Jandel Scientific GmbH, Germany) and expressed as mean±S.E.M. Two Way Repeated Measures Analysis of Variance (Two Way RM ANOVA) is used to analyse formalin test data and where applicable, this is followed by post-hoc analysis using Bonferroni's t-test to allow comparisons between groups. […]
structure (smiles),measurement,value
C=CC1CN2CCC1CC2[C@@H](OC(=O)CCC1CCCC1)c1ccnc2ccccc12 (stereo partly shown) [Compound A],flinching behaviour in Formalin test,attenuated flinching behaviour
